Experimental data reported in patent publication US7951232B2, “Surface coating compositions and methods” (Elevance Renewable Sciences, Inc., priority 2006, dated 2011).

What was measured:
[1] = system: Bacillus licheniformis ATCC 14580; assay: Growth inhibition in MRS medium (OD600); format: cell-based; settings: 0.075% w/v 9-DA from K9-DA, pH not adjusted, listed as potassium 9-DA
Description: (§1) Efficacy of the potassium salt of 9-DA was determined through incubation of the following organisms in the presence of varying concentrations of the potassium salt: Pseudomonas straminea ATCC 33636, Bacillus subtilis ATCC 6051, Bacillus licheniformis ATCC 14580, Bacillus cereus ATCC 14579, Pediococcus acidilactici ATCC 8042, and Lactobacillus casei ATCC 334.
(§2) Stock cultures of each organism were transferred into MRS liquid medium. MRS medium (Difco 288130) was purchased from Becton, Dickinson and Company, Sparks, Md.
(§3) The efficacy of different levels of the potassium salt of 9-DA was tested depending on the organism to inhibit the growth of various microorganisms indicated above.
(§4) The selected organisms were incubated overnight in 5 ml of MRS medium at 35° C. and 250 rpm. MRS media with K-9-DA was prepared, along with a control of straight media (no antimicrobial added). The concentrated antimicrobial agents were diluted with the appropriate media required for the respective microorganisms, to reach the required concentrations for the studies as indicated below. The antimicrobial agents were added by weight/volume percent on an ‘as 9-DA’ basis to the media. The purity of the antimicrobial agent (99% for K-9-DA) was taken into account. The pH of the medium was not adjusted. The target for initial cell density was 10^5 to 10^6 cfu/ml. […] OD600 readings were taken at 0, 4, 17, 23 and 47 hours. […]

[2] = system: microorganisms of Table 15 with the exception of Bacillus licheniformis; assay: Growth inhibition in MRS medium (OD600), summary over organisms; format: cell-based; settings: all concentrations tested
Description: as §1, §2, §3, §4

[3] = system: Pediococcus acidolactici ATCC 8042; assay: Growth inhibition in MRS medium at various pH levels (OD600); format: cell-based, Pediococcus acidilactici; settings: 0.05% w/v (as 9-DA)
Description: (§5) Efficacy of potassium salt of 9-DA were tested at various pH levels against the following: Bacillus cereus ATCC 14579, Pediococcus acidolactici ATCC 8042, Pseudomonas straminea ATCC 33636, and Lactobacillus casei ATCC 334. Stock cultures of each organism were transferred into MRS liquid medium. MRS medium (Difco 288130) was purchased from Becton, Dickinson and Company, Sparks, Md. The efficacy of the potassium salt of 9-DA (K-9-DA) was tested at different concentrations and pH levels, including 6.75 (unadjusted), 7.5, and 8.5. The selected organisms were incubated overnight in 5 ml of MRS medium at 35° C. and 250 rpm. MRS media with K-9-DA was prepared, along with a control of straight media (no antimicrobial added). The antimicrobial agent was added by weight/volume percent to the media. The purity, 99% for K-9-DA, was taken into account. The pH adjustments to 7.5 and 8.5 were done with 50% potassium hydroxide. Filter sterilization was used instead of autoclaving to prevent adverse chemical reactions at higher pH and temperature. The target for initial cell density was 10^5 to 10^6 cfu/ml. According to the McFarland standard, 0.01 OD600 is equivalent to approximately 10^8 cfu/ml. To achieve the proper dilution, 30 μl of overnight culture diluted to 0.01 OD600 was added to the 3 ml of media in each tube. The tubes were incubated at 35° C. with the exception of Pseudomonas strains which were incubated at 30° C. Treatments were all done in duplicate. All strains were shaken at 250 rpm, with the exception of Lactobacillus (because it is anaerobic). OD600 readings were taken at 0, 19, 25.5, 42.5 and 49 hours.
“Percent reduction in growth vs. control” was defined as (1−abs. of treatment/abs. of control)×100.

[4] = system: Lactobacillus casei ATCC 334; assay: as above; format: cell-based; settings: 0.075% w/v (as 9-DA)
Description: as §5, with “The tubes were incubated at 35° C. with the exception of Pseudomonas strains which were incubated at 30° C. Treatments were all done in duplicate. All strains were shaken at 250 rpm, with the exception of Lactobacillus (because it is anaerobic).” left out, “hours. […]” for “hours.”

[5] = system: Escherichia coli 0157:H7 ATCC 43895; assay: MIC and MBC determination in Mueller-Hinton Broth; format: cell-based; settings: 37±2° C., 20-24 hours
Description: Efficacy of 9-decenoic acid and the methyl ester of 9-decenoic acid against Pseudomonas aeruginosa ATCC 15442, Escherichia coli 0157:H7 ATCC 43895 and Candida albicans ATCC 10231 was measured through the determination of the minimum inhibitory concentration (MIC) and minimum bacteriocidal concentration (MBC) using the procedures in the Federal Register, June 1994 and the present NCCLS M11-A4 protocol.
Stock cultures of each organism were transferred onto Mueller-Hinton Agar (MHA) plates and incubated for 24±2 hours at 37±2° C. On the day of the test, the top of at least three to five well-isolated colonies were transferred via wire loop to a tube containing 4 to 5 ml of Trypticase Soy Broth (TSB). The TSB culture was incubated for 2 to 6 hours and turbidity was adjusted with sterile saline to achieve the turbidity of the 0.5 McFarland Standard.
The concentrated 9-decenoic acid was diluted 1:40 in Mueller-Hinton Broth (MHB) to yield a 2.5% stock solution. The test solution of the methyl ester of 9-decenoic acid was formulated in the same manner. For each organism, 12 dilutions of the 9-decenoic acid and the methyl ester of 9-decenoic acid in MHB were prepared ranging from 0.2500 to 0.0005%. A 2-ml aliquot of appropriately diluted 9-decenoic acid or the methyl ester of 9-decenoic acid solution was placed in each tube. Each tube was inoculated with 0.05 ml of a 1:10 dilution of one challenge organism. Tubes were incubated at 37±2° C. for 20-24 hours and observed for growth or no growth. […] Controls were run for sterility, viability and organism confirmation. It was determined that all cultures were viable and pure.
The MBC was defined as the concentration of 9-decenoic acid or the methyl ester of 9-decenoic acid that completely eradicated viable organisms from the test system.

[6] = system: Pseudomonas aeroginosa, ATCC 15442; assay: Time-Kill Procedure (ASTM), rate of kill; format: cell-based, Pseudomonas aeruginosa; settings: all concentrations (0.01, 0.05 and 0.1%), after 10 minutes
Description: (§6) The rate of kill for these organisms upon exposure to 9-decenoic acid was determined using the American Society for Testing and Materials (ASTM) procedure entitled “Standard Test Method for the Assessment of Microbiocidal Activity of Test Materials Using a Time-Kill Procedure”, October 1998. This procedure incorporates the recommendations described in the “Manual of Clinical Microbiology,”5th ed., edited by A. B. Balows et al., ASM, Washington, and is directed by the Federal Register, June 1994.
(§7) Stock cultures were transferred into TSB and incubated for 18-24 hours at 37±2° C. A second transfer was made onto TSA plates and were incubated for 18-24 hours at 37±2° C. The plates were removed from incubation and the bacterial growth washed from the agar surface using Butterfield's Phosphate Buffered Dilution Water (PBDW). The bacterial suspension was adjusted to contain approximately 10^8 Colony Forming Units (CFU)/ml with PBDW using spectrophometric methods extant in the laboratory.
(§8) The concentrated 9-decenoic acid was diluted 1:40 in filter sterilized isopropanol to yield a 2.5% stock solution. Subsequent dilutions to the 9-decenoic acid stock solutions were made with sterile Deionized Water (DI) to achieve concentrations of 0.1%, 0.05%, 0.01%, and 0.001%. The pH was determined for each dilution; pH values ranged from 4.4-4.1. Additionally, the 9-decenoic acid stock solution was adjusted to pH 7 with 1 N NaOH and serially diluted with sterile DI to achieve concentrations of 1.0%, 0.75% and 0.5%.
(§9) Compliant with the ASTM procedure cited, for each challenge microorganism a 9.9 ml aliquot of the prepared 9-decenoic acid suspension was added to a sterile tube. A 0.1 ml aliquot of the standardized inoculum was added to the 9-decenoic acid solution representing the start of the test exposure. The inoculated 9-decenoic acid solution was immediately mixed thoroughly. The inoculated suspension was held at room temperature for 0.5, 2, 5, 7 and 10 minute exposure times for tests run at ˜pH 4. The pH 7 tests were held at room temperature for 0.5 and 2 minutes.
(§10) At each exposure sample time, a 1.0 ml aliquot of the inoculated 9-decenoic acid suspension was transferred to 9.0 ml of D/E Neutralizing Broth. Additional ten-fold serial dilutions were made in PBDW and plated in duplicate on TSA. All plates were incubated for 48 hours at 37±2° C. and visually examined for growth. The plates are enumerated, recorded and log kill determined for each time point.
(§11) The following study controls were conducted: culture purity, neutralizer sterility, initial suspension population, test population, neutralization verification and a negative control using isopropanol. Culture purity was verified by performing a streak plate for isolated colonies on the each culture used. All cultures were determined to be pure based on consistent colony morphology typical for the test organism. The neutralizer sterility was confirmed by no growth in an incubated sample.
(§12) The population of the initial and test culture were determined by serial dilution, plating and enumerating after incubation. The initial suspension were determined to be ≧10^4 CFU/ml. The test culture population was used for calculation of the log reduction achieved at each time point.
(§13) Neutralization effectiveness was verified by a filtration test. For each organism, four tubes were prepared with 9 ml D/E Neutralizing Broth and fewer than 100 CFU/ml of the organism. A 1.0 ml aliquot of prepared 9-decenoic acid was added to each tube. Immediately, the entire contents of 2 tubes were filtered through a filtration apparatus and rinsed with sterile diluent. The remaining 2 tubes were held at room temperature for 30 minutes and then the entire contents were filtered using the same procedure. The filters were aseptically transferred to TSA plates and incubated for 48 hours at 37±2° C. and visually examined for growth.
(§14) This control was inoculated, subcultured and incubated as in the test procedure.

[7] = system: Candida albicans, ATCC 10231; assay: Time-Kill Procedure (ASTM), rate of kill; format: cell-based; settings: all concentrations (0.01, 0.05 and 0.1%), after 10 minutes
Description: as §6, §7, §8, §9, §10, §11, §12, §13, §14

[8] = system: Escherichia coli 0157:H7, ATCC 43895; assay: Time-Kill Procedure (ASTM), rate of kill; format: cell-based; settings: all concentrations (0.01, 0.05 and 0.1%), after 10 minutes
Description: as §6, §7, §8, §9, §10, §11, §12, §13, §14

[9] = system: Aureobasidium pullulans ATCC 12536; assay: Dry film preservative test, growth on PDA agar surface; format: cell-based; settings: 0.5% in PDA agar
Description: (§15) The efficacy of 9-decenoic acid and the methyl ester of 9-decenoic acid as a dry film preservative was determined through the incubation of Trichoderma virens ATCC 9645, Cladosporium cladosporiodes ATCC 16022 and Aureobasidium pullulans ATCC 12536 in the presence of varying concentrations of 9-decenoic acid or the methyl ester of 9-decenoic acid on an agar surface.
(§16) Fungal spores were hydrated overnight in 0.1% Tween 80 and then plated on Potato Dextrose Agar (PDA) and incubated at 25-30° C. for 6 days. The spores were washed from the surface with 5 mls of 0.1% Tween 80 and enumerated.
(§17) PDA plates with prepared according to the manufactures instructions through sterilization. The agar was tempered to approximately 50° C. and filter sterilized 9-decenoic acid was added to achieve concentrations of 0.1, 0.5 and 1.0% in the agar. Additionally, one concentration of the methyl ester of 9-decenoic acid (0.5%) was also prepared. The agar was thoroughly mixed and poured into sterile petri plates and allowed to solidify.
(§18) The agar plates were inoculated with the spore solution to achieve 10^2 spores/plate. The plates were incubated at 25-30° C. in Ziploc bags with a wet paper towel to keep the moisture level high. The plates were examined for growth after 4, 7, 16, 24 and 31 days. The percent coverage of growth on the agar surface was recorded at each sample point.

[10] = system: Cladosporium cladosporiodes ATCC 16022; assay: as above; format: cell-based; settings: 0.5% in PDA agar
Description: as §15, §16, §17, §18

[11] = system: Trichoderma virens ATCC 9645; assay: as above; format: cell-based; settings: 0.5% in PDA agar
Description: as §15, §16, §17, §18

C=CCCCCCCCC(=O)O.[K] [K9-DA, Potassium-9 Decenoic Acid]
% reduction in growth vs. control [1]: 88.63%
reduction in growth when compared to controls [2]: ≥ 95%
% reduction in growth vs. control ([3]; Non-pH adjusted (6.75)): 90.6%
% reduction in growth vs. control ([3]; pH 7.5): 93.2%
% reduction in growth vs. control ([3]; pH 8.5): 95.6%
% reduction in growth vs. control ([4]; Non-pH adjusted (6.75)): 88.4%
% reduction in growth vs. control ([4]; pH 7.5): 91.7%

C=CCCCCCCCC(=O)OC [Methyl ester of 9-decenoic acid, methyl ester of 9-decenoic acid]
MIC ([5]; Mueller-Hinton Broth): 0.1250%
MBC ([5]; no-growth tubes subcultured on TSA): 0.1250%
log reduction in time kill test [6]: < 1 log
log reduction in time kill test [7]: < 1 log
log reduction in time kill test [8]: < 1 log
time up to which growth of the culture was significantly inhibited [9]: 16 days
Percentage coverage of agar surface ([9]; 4 days): 0%
Percentage coverage of agar surface ([9]; 7 days): 2.5%
Percentage coverage of agar surface ([9]; 16 days): 10%
Percentage coverage of agar surface ([9]; 24 days): 50%
Percentage coverage of agar surface ([9]; 31 days): 75%
time up to which growth of the culture was significantly inhibited [10]: 4 days
Percentage coverage of agar surface ([10]; 4 days): 10%
Percentage coverage of agar surface ([10]; 7 days): 50%
Percentage coverage of agar surface ([10]; 16 days): 50%
Percentage coverage of agar surface ([10]; 24 days): 50%
Percentage coverage of agar surface ([10]; 31 days): 50%
time up to which growth of the culture was significantly inhibited [11]: 4 days
Percentage coverage of agar surface ([11]; 4 days): 60%
Percentage coverage of agar surface ([11]; 7 days): 95%
Percentage coverage of agar surface ([11]; 16 days): 100%
Percentage coverage of agar surface ([11]; 24 days): 100%
Percentage coverage of agar surface ([11]; 31 days): 100%
